The test system of one data set is NIH 3T3. Also noted: method as in https://pubchem.ncbi.nlm.nih.gov/compound/91800813. Particulars: ref https://pubchem.ncbi.nlm.nih.gov/compound/91800813, read-out: cytotoxicity IC50; cited from earlier work.
Another data set has as its target T1, Purified rabbit lung ACE (Oryctolagus cuniculus, UniProt P12822).
T1 construct: Purified rabbit lung ACE (EC 3.4.15.1) was purchased from Sigma-Aldrich; purchased Sigma-Aldrich; host or cells: rabbit lung tissue
T1 sequence (P12822 34-1310): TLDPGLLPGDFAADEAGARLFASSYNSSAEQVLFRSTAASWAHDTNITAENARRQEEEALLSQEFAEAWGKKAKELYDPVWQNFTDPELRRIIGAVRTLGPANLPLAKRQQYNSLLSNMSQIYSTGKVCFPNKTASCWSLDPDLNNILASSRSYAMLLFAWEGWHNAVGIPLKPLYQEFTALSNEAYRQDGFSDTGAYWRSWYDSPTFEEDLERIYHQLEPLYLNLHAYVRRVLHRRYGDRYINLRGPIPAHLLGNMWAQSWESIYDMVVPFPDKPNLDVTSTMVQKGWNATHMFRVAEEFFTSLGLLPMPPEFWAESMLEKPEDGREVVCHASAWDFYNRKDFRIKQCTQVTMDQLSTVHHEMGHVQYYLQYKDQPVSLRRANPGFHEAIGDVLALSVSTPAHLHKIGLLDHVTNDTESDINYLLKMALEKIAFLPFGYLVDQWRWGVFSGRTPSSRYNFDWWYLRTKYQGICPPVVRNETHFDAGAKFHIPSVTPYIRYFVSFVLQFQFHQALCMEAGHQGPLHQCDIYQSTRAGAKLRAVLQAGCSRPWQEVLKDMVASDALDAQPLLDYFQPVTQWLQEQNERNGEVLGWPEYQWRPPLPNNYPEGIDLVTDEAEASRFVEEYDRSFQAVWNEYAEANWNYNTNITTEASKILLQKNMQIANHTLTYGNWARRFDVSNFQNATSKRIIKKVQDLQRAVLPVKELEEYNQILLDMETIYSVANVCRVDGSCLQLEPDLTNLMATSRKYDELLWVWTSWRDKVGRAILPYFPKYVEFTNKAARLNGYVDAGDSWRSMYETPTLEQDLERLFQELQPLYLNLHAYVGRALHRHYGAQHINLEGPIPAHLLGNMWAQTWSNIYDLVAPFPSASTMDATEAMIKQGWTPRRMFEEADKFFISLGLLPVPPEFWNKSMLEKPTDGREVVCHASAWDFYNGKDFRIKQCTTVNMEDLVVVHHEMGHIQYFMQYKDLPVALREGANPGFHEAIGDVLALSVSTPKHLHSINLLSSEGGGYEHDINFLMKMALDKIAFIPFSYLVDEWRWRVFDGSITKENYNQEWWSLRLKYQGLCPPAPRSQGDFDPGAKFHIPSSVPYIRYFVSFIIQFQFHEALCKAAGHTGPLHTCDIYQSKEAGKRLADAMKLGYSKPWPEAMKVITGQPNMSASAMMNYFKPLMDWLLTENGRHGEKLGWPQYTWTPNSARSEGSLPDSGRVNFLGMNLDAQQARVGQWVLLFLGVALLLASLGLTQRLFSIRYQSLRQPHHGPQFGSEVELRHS
The data set can be described thus: ACE assay with Abz-FRK(Dnp)P-OH, dose-response. The following applies: dose-response 7,5 pM to 62,5 μM. Format: biochemical.

A further data set relates to HepG2. Also noted: method as in https://pubchem.ncbi.nlm.nih.gov/compound/91800813. Particulars: ref https://pubchem.ncbi.nlm.nih.gov/compound/91800813, read-out: cytotoxicity IC50; cited from earlier work.
The next data set concerns T. brucei. The arrangement: method as in https://pubchem.ncbi.nlm.nih.gov/compound/91800813. Particulars: ref https://pubchem.ncbi.nlm.nih.gov/compound/91800813; cited from earlier work.

Protocol for Purified rabbit lung ACE: Because M32 MCPs show a strong topological similarity with ACE [22], we chose this enzyme to estimate the IC50 value for each molecule.
(A) Purified rabbit lung ACE was assayed at 37°C in 0,1 M Tris-HCl pH 7,0 buffer containing 50 mM NaCl, 10 mM ZnCl2 and 0,01% Triton X-100. […] NI, no inhibitor added. […] In all cases, solid lines represent the best fit of four-parameter Hill equation to experimental data (closed circles).
Purified rabbit lung ACE (EC 3.4.15.1) was purchased from Sigma-Aldrich. Enzyme activity was assayed fluorimetrically with Abz-FRK(Dnp)P-OH (ex/em = 320/420 nm) as substrate in buffer 0,1 M Tris-HCl, 50 mM NaCl, 10 mM ZnCl2, pH 7.0 containing 0,01% Triton X-100 as indicated in [23].

With `N#Cc1ccc(S(=O)(=O)N2CCN(Cc3cccc(-c4ccncc4)c3)CC2)cc1` [TCMDC-143620], the IC50 – broadly, the concentration at which inhibition is half-maximal – with NIH 3T3 is 13 µM; with HepG2 it was over 100 µM. Besides, the ACE inhibition result on Purified rabbit lung ACE was “inactive”. Moreover, the “activity on T. brucei” value with T. brucei is “moderate but measurable activity”.

The values above are taken from article PMC6675120, “Potent and selective inhibitors for M32 metallocarboxypeptidases identified from high-throughput screening of anti-kinetoplastid chemical boxes” (PLoS Neglected Tropical Diseases, 2019).
